Tests used:
Format in all cases: cell-based
[1] = test system: human stomach cancer NCI-N87; experiment: growth inhibition on NCI-N87 in vitro (MTT); conditions: NCI-N87 cells, 72 h, read-out: growth inhibition effects IC50 (nM) NCI-N87
Description: (§1) Human pancreatic cancer AsPC-1; human acute lymphocytic leukemia taxol-resistant cell strain CCRF-CEM/T; human adenocarcinoma of lung NCI-H1975; human pharyngeal squamous cell carcinoma Fadu; human B lymphoma BA25; human B lymphoma BA91; human B lymphoma BA127; human stomach cancer NCI-N87; human non-small cell lung cancer A549; human liver cancer SK-Hep-1; human lung cancer NCI-H460; human prostate cancer PC-3.
(§2) The following cells were cultured under the following conditions, respectively:
(§3) 37° C., 5% CO2, saturated humidity.
(§4) The cells were cultured until confluence, digested with a pancreatic enzyme, and prepared into a single cell suspension in a complete medium.
(§5) The cells were seeded in a 96-well microplate at a suitable concentration (AsPC-1: 8000 cells/well; NCI-H1975: 5000 cells/well; Fadu: 6000 cells/well; NCI-N87: 15000 cells/well), cultured overnight to render them adherent to the bottom.
(§6) A 2 mM stock solution was prepared by dissolving test compounds in DMSO, diluted with a base medium (without serum) to form a 20 μM or 2 μM 10× working solution which was diluted using a gradient of 1/3. During dilution, the concentration of DMSO was kept consistent. There were 8 dose groups in total. 20 μl of 10× compound working solution was added to the experimental well until the final volume of each well was 200 μl and the concentration of DMSO was 1‰. Meanwhile, a solvent control group (PC) without compounds (PC) and a solvent control group without cells and compounds (NC) were prepared. The cells were further cultured for 72 h.
(§7) Subsequently, the activity of cells was measured with a microculture tetrozolium (MTT method). […] The medium containing MTT was once again sucked out, 100 μl/well of DMSO was added to dissolve MTT crystal, and OD value at 490 nm was measured with an ELISA analyzer.
(§8) Inhibition rate of a compound was calculated as follows: Inhibition rate=[1−(OD value of administration group−OD value of NC)/(OD value of PC−OD value of NC)]×100% […]

human B lymphoma BA127 = experiment: growth inhibition on BA127 in vitro (MTT); conditions: BA127 cells, 72 h
Description: as §1
(§9) The cells were cultured under the following conditions:
(§10) complete medium: 90% RPMI1640, 10% FBS; 37° C., 5% CO2, saturated humidity.
(§11) After cultured to the end of the logarithmic growth phase, the cells were diluted with the complete medium to the required concentration.
(§12) The cells were seeded in a 96-well microplate at a suitable concentration (CCRF-CEM/T: 20000 cells/well; BA25: 20000 cells/well; BA91: 60000 cells/well; BA127: 60000 cells/well).
as §6, with “total. 12” for “total. 20”, “was 120” for “was 200”, “group” for “group (PC)”
(§13) Subsequently, the activity of cells was measured with a microculture tetrozolium (MTT method). Specifically, 30 μl/well of PBS containing 2.5 mg/ml MTT was added, and then the cells were cultured for another 3 h. 100 μl/well of triple lysis buffer (10% SDS, 5% isobutanol, 0.012 M HCl) was added, and the mixture was kept at room temperature to dissolve MTT crystal. OD value at 570 nm was measured with an ELISA analyzer.
(§14) Inhibition rate of a compound was calculated as follows:
(§15) Inhibition rate=[1−(OD value of administration group−OD value of NC)/(OD value of PC−OD value of NC)]×100%
(§16) Inhibition rates were then plotted versus the logarithm of compound concentrations, and fitted with Logistic 4 parameter equation. The compound concentration corresponding to 50% inhibition rate in the curve was IC50 value.

[2] = test system: human adenocarcinoma of lung NCI-H1975; experiment: growth inhibition on NCI-H1975 in vitro (MTT); conditions: NCI-H1975 cells, 72 h, read-out: growth inhibition effects IC50 (nM) NCI-H1975
Description: as §1, §2, §3, §4, §5, §6, §7, §8

human B lymphoma BA25 = experiment: growth inhibition on BA25 in vitro (MTT); conditions: BA25 cells, 72 h
Description: as §1, §9, §10, §11, §12
as §6, with “total. 12” for “total. 20”, “was 120” for “was 200”, “group” for “group (PC)”
as §13, §14, §15, §16

[3] = test system: human lung cancer NCI-H460; experiment: growth inhibition on NCI-H460 in vitro; conditions: NCI-H460 cells, read-out: growth inhibition effects IC50 (nM) NCI-H460
Source text: as §1

[4] = test system: human non-small cell lung cancer A549; experiment: growth inhibition on A549 in vitro; conditions: A549 cells, read-out: growth inhibition effects IC50 (nM) A549
Source text: as §1

[5] = test system: human acute lymphocytic leukemia taxol-resistant cell strain CCRF-CEM/T; experiment: growth inhibition on CCRF-CEM/T in vitro (MTT); conditions: CCRF-CEM-T cells, 72 h
Description: as §1, §9, §10, §11, §12
as §6, with “total. 12” for “total. 20”, “was 120” for “was 200”, “group” for “group (PC)”
as §13, §14, §15, §16

[6] = test system: human prostate cancer PC-3; experiment: growth inhibition on PC-3 in vitro; conditions: PC-3 cells, read-out: growth inhibition effects IC50 (nM) PC-3
Source text: as §1

[7] = test system: human pharyngeal squamous cell carcinoma Fadu; experiment: growth inhibition on FaDu in vitro (MTT); conditions: FaDu cells, 72 h
Description: as §1, §2, §3, §4, §5, §6
(§17) Subsequently, the activity of cells was measured with a microculture tetrozolium (MTT method). Specifically, the medium in well was sucked out, a base medium containing 0.5 mg/ml MTT was added in an amount of 100 μl/well, and then the cell was further cultured for 3 h. The medium containing MTT was once again sucked out, 100 μl/well of DMSO was added to dissolve MTT crystal, and OD value at 490 nm was measured with an ELISA analyzer.
(§18) Inhibition rate of a compound was calculated as follows: Inhibition rate=[1−(OD value of administration group−OD value of NC)/(OD value of PC−OD value of NC)]×100%
as §16

human B lymphoma BA91 = experiment: growth inhibition on BA91 in vitro (MTT); conditions: BA91 cells, 72 h
Description: as §1, §9, §10, §11, §12
as §6, with “total. 12” for “total. 20”, “was 120” for “was 200”, “group” for “group (PC)”
as §13, §14, §15, §16

[8] = test system: Human pancreatic cancer AsPC-1; experiment: growth inhibition on AsPC-1 in vitro (MTT); conditions: ASPC1, Aspc-1 cells, 72 h
Description: as §1, §2, §3, §4, §5, §6, §17, §18, §16

[9] = test system: human liver cancer SK-Hep-1; experiment: growth inhibition on SK-Hep-1 in vitro; conditions: SK-HEP1, SK-Hep-1 cells, read-out: growth inhibition effects IC50 (nM) SK-Hep-1
Source text: as §1

Row | Compound | IC50 [1] [nM] | IC50 (human B lymphoma BA127) [nM] | IC50 [2] [nM] | IC50 (human B lymphoma BA25) [nM] | IC50 [3] [nM] | IC50 [4] [nM] | IC50 [5] [nM] | IC50 [6] [nM] | IC50 [7] [nM] | IC50 (human B lymphoma BA91) [nM] | IC50 [8] [nM] | IC50 [9] [nM]
1 | N#C/N=C(\NCCCCCCOc1ccccc1OC(F)(F)F)Nc1ccncc1 [Example 11, N-cyano-N′-(6-(o-trifluoromethoxyphenoxy)hexyl)-N″-(4-pyridyl) guanidine] | 1.5 | 1.5 | 5.3 | 1 | 8 | 3 | 1.6 | 0.2 | 1.5 | 1.5 | 2.1 | 2.3
2 | N#C/N=C(\NCCCCCCOc1ccccc1OC(F)(F)F)Nc1cccnc1 [Example 2, N-cyano-N′-(6-(o-trifluoromethoxyphenoxy)hexyl)-N″-(3-pyridyl) guanidine] |  | 4.3 |  | 4.4 |  |  |  |  |  | 2.7 |  | 
3 | N#C/N=C(\NCCCCCCOc1cc(Cl)ccc1OC(F)F)Nc1ccncc1 [Example 1, N-cyano-N′-(6-(2-difluoromethoxy-5-chlorophenoxy)hexyl)-N″-(4-pyridyl) guanidine] |  | 1.4 |  |  |  |  | 2.2 |  | 1.2 | 2 |  | 
4 | N#C/N=C(\NCCCCCCOc1ccc(Cl)cc1)Nc1ccncc1 [Control 2, N-cyano-N′-(6-(4-chlorophenoxy)hexyl)-N″-(4-pyridyl) guanidine] | 14 |  | 54 |  | 83 | 22 | 22 | 2.5 | 11.7 |  | 19 | 16
5 | COc1ccccc1OCCCCCN/C(=N\C#N)Nc1ccncc1 [Control 1, N-cyano-N′-(5-(o-methoxyphenoxy)pentyl)-N″-(4-pyridyl) guanidine, reference compound] |  |  |  |  |  |  | 113 |  |  |  | 135 | 
6 | N#C/N=C(\NCCCCCCCCOc1ccccc1OC(F)(F)F)Nc1ccncc1 [Example 6, N-cyano-N′-(8-(o-trifluoromethoxyphenoxy)octyl)-N″-(4-pyridyl) guanidine] |  | 9.3 |  | 5.6 |  |  |  |  |  | 9.6 |  | 
7 | N#C/N=C(\NCCCCCCOc1ccc(Cl)cc1OC(F)F)Nc1ccncc1 [Example 12, N-cyano-N′-(6-(2-difluoromethoxy-4-chlorophenoxy)hexyl)-N″-(4-pyridyl)guanidine] |  | 3.2 |  |  |  |  | 2.3 |  | 2.8 | < 1 | 2.3 | 
8 | N#C/N=C(\NCCCCCCOc1ccc(OC(F)(F)F)cc1)Nc1ccncc1 [Example 4, N-cyano-N′-(6-(p-trifluoromethoxyphenoxy)hexyl)-N″-(4-pyridyl) guanidine] |  |  |  | 12 |  |  |  |  |  |  |  | 
9 | Cc1ccc(OC(F)F)c(OCCCCCCN/C(=N\C#N)Nc2ccncc2)c1 [Example 16, N-cyano-N′-(6-(5-methyl-2-difluoromethoxyphenoxy)hexyl)-N″-(4-pyridyl)guanidine] |  | 1.3 |  |  |  |  | 2.2 |  | 1.3 | < 1 | 0.9 | 
10 | N#C/N=C(\NCCCCCOc1ccccc1OC(F)(F)F)Nc1ccncc1 [Example 5, N-cyano-N′-(5-(o-trifluoromethoxyphenoxy)pentyl)-N″-(4-pyridyl) guanidine] |  | 6.1 |  | 7.3 |  |  |  |  |  | 6.9 |  | 
11 | COc1ccccc1OCCCCCCN/C(=N\C#N)Nc1ccncc1 [Control 4, N-cyano-N′-(6-(2-methoxyphenoxy)hexyl)-N″-(4-pyridyl) guanidine] | 6.6 |  | 15.5 |  | 38 | 9.9 | 6.9 | 2.4 |  |  | 7.3 | 
12 | N#C/N=C(\NCCCCCCOc1ccc(Br)cc1OC(F)(F)F)Nc1ccncc1 [Example 7, N-cyano-N′-(6-(2-trifluoromethoxy-4-bromophenoxy)hexyl)-N″-(4-pyridyl)guanidine] |  | 6.9 |  | 6.3 |  |  | 5.1 |  | 4.7 | 5.8 |  | 
13 | CC(C)(C)c1ccc(OC(F)F)c(OCCCCCCN/C(=N\C#N)Nc2ccncc2)c1 [Example 10, N-cyano-N′-(6-(2-difluoromethoxy-5-tert-butylphenoxy)hexyl)-N″-(4-pyridyl)guanidine] |  | 13 |  |  |  |  |  |  | 2.4 | 3.5 |  | 
14 | N#C/N=C(\NCCCCCCOc1ccccc1Cl)Nc1ccncc1 [Control 3, N-cyano-N′-(6-(2-chlorophenoxy)hexyl)-N″-(4-pyridyl) guanidine, reference compound] |  |  |  |  |  |  | 6.3 |  |  |  | 7.2 | 

— patent US8604065B2, “Pyridyl cyanoguanidine derivatives” (priority 2010, dated 2013)
